Measured values reported in patent publication US6329405A, “Cyclobutene derivatives, their preparation and their therapeutic uses” (Sankyo Company, Limited, priority 1999, dated 2001).

What was measured:
[1] = tested on: ileal bile acid transporter; test: Measurement of Bile Acid Transporter Inhibitory Activity in vivo ([3H]-taurocholic acid radioactivity in gall bladder bile); parameters: species or system Syrian golden hamsters; conditions: male hamsters; oral gavage 100 mg/10 ml/kg; [3H]-taurocholic acid 1.5 hours after; gall bladder bile at 24 hours
Procedure: Measurement of Bile Acid Transporter Inhibitory Activity in vivo
Male Syrian golden hamsters were used. The hamsters were reared in cages and fed food and water ad libitum. Test compound was orally administered by gavage (100 mg/10 ml/kg) as a suspension in 0.5% w/v carboxymethyl cellulose aqueous solution. Each hamster was given orally 1 μCi of [^3 H]-taurocholic acid ([…]) in physiological saline 1.5 hours after administration of the test compound. Twenty four hours after the oral administration of [^3 H]-taurocholic acid, each of the hamsters was sacrificed and the gall bladder bile was collected. The total radioactivity in the bladder bile was determined and compared to a vehicle-treated group.
Percentage inhibition (%) was determined by the following formula:
Inhibition percentage=100-(radioactivity in the treated
group)/(radioactivity in the control group)×100

[2] = target: T1, human ileal bile acid transporter (Homo sapiens, UniProt Q12908); test: Measurement of Bile Acid Transporter Inhibitory Activity in vitro (uptake of [3H]-taurocholic acid into hIBAT-expressing Caco-2 cells); type: cell-based; conditions: 0.1 μCi [3H]-taurocholic acid, 37° C., 1 hour
T1 construct: expressed in transfected cells
T1 sequence (Q12908 1-348): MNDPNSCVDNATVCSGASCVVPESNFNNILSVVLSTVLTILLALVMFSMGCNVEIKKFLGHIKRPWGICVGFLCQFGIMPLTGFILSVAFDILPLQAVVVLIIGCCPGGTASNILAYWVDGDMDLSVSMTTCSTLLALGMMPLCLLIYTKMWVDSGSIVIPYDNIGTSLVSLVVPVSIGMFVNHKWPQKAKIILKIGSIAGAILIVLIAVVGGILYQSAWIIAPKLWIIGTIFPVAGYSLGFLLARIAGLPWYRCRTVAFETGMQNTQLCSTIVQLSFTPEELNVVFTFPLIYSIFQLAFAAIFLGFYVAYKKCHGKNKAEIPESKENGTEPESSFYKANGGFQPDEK
Description: Measurement of Bile Acid Transporter Inhibitory Activity in vitro
1) Insertion of human ileal bile acid transporter cDNA into a mammalian expression vector
Human ileal bile acid transporter cDNA (GenBank accession number U10417, hereinafter abbreviated as "hIBAT") was amplified by PCR using a human kidney cDNA library ("Marathon-Ready"™, Clontech Laboratories) as a template. The sense oligonucleotide primer used was 5'-[…]-3' (corresponding to residues 512-533 of hIBAT cDNA: Sequence ID No. 1) while the antisense oligonucleotide primer used was 5'-[…]-3' (corresponding to residues 1649-1670 of hIBAT cDNA: Sequence ID NO. 2). […]
After incubation, the cells were washed 5 times with ice cooled PBS (phosphate buffered saline) containing 0.2% bovine serum albumin and 1 mM non-radioactive taurocholic acid. […] Radioactivity was measured using a "Top Count" (Packard) liquid scintillation counter.
By measuring the radioactivity of the control (no text compound) and comparing this with the radioactivity obtained from the cells exposed to test compound at various, predetermined concentrations, it was possible to determine a percentage inhibition (%) and to obtain an IC50 for the test compound against the ileal bile acid transporter activity.

IC50 [2] [µM] | SMILES | Percentage inhibition [1] [%]
13.8 | C[C@H](NC(c1ccccc1)c1cccc(Nc2c(N)c(=O)c2=O)c1)c1ccccc1 (single isomer, unassigned) [2 (isomer B)] | 61.87
– | COc1ccc(C(N[C@H](C)c2cc(F)cc(F)c2)c2cccc(Nc3c(O)c(=O)c3=O)c2)cc1 (single isomer, unassigned) [64(e)] | 80.0
